Test results taken from article PMC9551036, “A selective and orally bioavailable VHL-recruiting PROTAC achieves SMARCA2 degradation in vivo” (Nature Communications, 2022).
Values joined by “and” are separate entries in the source; they are usually repeats but may differ in a detail not shown here. Equal values may be shown once.

System: panel of cell lines (A549, HCC-364, HCC-515, HCC4006, KYSE-30, LU99, LXFA_629L, LXFA_923L, LXFL_529L, LXFL_1121L, MP38, NCI-H23, NCI-H1355, OV-90, SK-MEL-5 …)
Experiment: Cell viability assay (CellTiter Glo) in a panel of cell lines;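 as to % Viability: percent of DMSO-treated control cells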
Assay type: cell-based, human
Description: 500–2000 cells were seeded in white, clear bottom 96-well plates (Corning or Perkin Elmer) in 180–200 µl medium per well. The next day, compounds were added using a digital dispenser and a T0 sample was measured for reference. Cells were incubated for 144–192 h, and viability (luminescence) was measured using CellTiter Glo or CellTiter Glo 2.0 (Promega) according to manufacturer’s instructions after equilibrating cells and reagents at room temperature and 10–20 min incubation time while shaking.

Structure (SMILES): Cc1ncsc1-c1ccc(C(CCC(C)CCN2CCC(c3ccc4c(c3)n(C3CCCC3)c3nc(=O)c5c(Br)cccc5n43)CC2)NC(=O)C2CC(O)CN2C(=O)C(NC(=O)C2(F)CC2)C(C)(C)C)cc1 (stereo not drawn) [ACBI2]
- HillSlope (viability) (A549): -0.487
- % Viability (A549, log10 conc -7 mol/l): 47.919% and 42.1211%
- % Viability (A549, log10 conc -7.50031 mol/l): 60.413% and 52.9594%
- % Viability (A549, log10 conc -8 mol/l): 70.4787% and 68.1265%
- % Viability (A549, log10 conc -8.50031 mol/l): 100.959% and 102.653%
- HillSlope (viability) (HCC4006): -2.51
- % Viability (HCC4006, log10 conc -7.10735 mol/l): 106.752% and 106.118%
- % Viability (HCC4006, log10 conc -8.31158 mol/l): 118.541% and 111.324%
- HillSlope (viability) (HCC-364): -2.992
- % Viability (HCC-364, log10 conc -7.10735 mol/l): 39.6895% and 65.8316%
- % Viability (HCC-364, log10 conc -8.31158 mol/l): 101.18% and 100.543%
- HillSlope (viability) (HCC-515): -0.931
- % Viability (HCC-515, log10 conc -7 mol/l): 21.3218% and 22.1794%
- % Viability (HCC-515, log10 conc -7.50031 mol/l): 21.1243% and 26.9825%
- % Viability (HCC-515, log10 conc -8 mol/l): 34.5235% and 34.7052%
- % Viability (HCC-515, log10 conc -8.50031 mol/l): 51.5226% and 47.9218%
- HillSlope (viability) (KYSE-30): -1.122
- % Viability (KYSE-30, log10 conc -7.10735 mol/l): 99.6818% and 96.2107%
- % Viability (KYSE-30, log10 conc -8.31158 mol/l): 107.107% and 103.099%
- HillSlope (viability) (LU99): -1.519
- % Viability (LU99, log10 conc -7.10735 mol/l): 81.59% and 77.7555%
- % Viability (LU99, log10 conc -8.31158 mol/l): 123.387% and 114.143%
- HillSlope (viability) (LXFA_629L): -0.7355
- % Viability (LXFA_629L, log10 conc -7 mol/l): 28.2712% and 27.4037%
- % Viability (LXFA_629L, log10 conc -7.50031 mol/l): 41.2713% and 34.5184%
- % Viability (LXFA_629L, log10 conc -8 mol/l): 57.9035% and 54.0045%
- % Viability (LXFA_629L, log10 conc -8.50031 mol/l): 89.2294% and 82.1746%
- HillSlope (viability) (LXFA_923L): -0.4788
- % Viability (LXFA_923L, log10 conc -7.50031 mol/l): 31.729% and 41.6954%
- % Viability (LXFA_923L, log10 conc -8 mol/l): 41.6215% and 47.8343%
- % Viability (LXFA_923L, log10 conc -8.50031 mol/l): 63.1043% and 68.2132%
- HillSlope (viability) (LXFL_529L): -0.4813
- % Viability (LXFL_529L, log10 conc -7.50031 mol/l): 17.7092% and 18.3663%
- % Viability (LXFL_529L, log10 conc -8 mol/l): 23.2341% and 22.4794%
- % Viability (LXFL_529L, log10 conc -8.50031 mol/l): 25.5623% and 26.9316%
- HillSlope (viability) (LXFL_1121L): -1.483
- % Viability (LXFL_1121L, log10 conc -7.50031 mol/l): 92.1257% and 100.242%
- % Viability (LXFL_1121L, log10 conc -8 mol/l): 96.5968% and 112.339%
- % Viability (LXFL_1121L, log10 conc -8.50031 mol/l): 103.275% and 116.726%
- HillSlope (viability) (MP38): -1.603
- % Viability (MP38, log10 conc -7.50031 mol/l): 10.4737% and 10.5264%
- % Viability (MP38, log10 conc -8 mol/l): 48.5822% and 44.1126%
- % Viability (MP38, log10 conc -8.50031 mol/l): 84.8854% and 80.6261%
- HillSlope (viability) (NCI-H23): -0.9596
- % Viability (NCI-H23, log10 conc -7.10735 mol/l): 77.4555% and 94.2831%
- % Viability (NCI-H23, log10 conc -8.31158 mol/l): 93.614% and 103.354%
- HillSlope (viability) (NCI-H1355): -1.475
- % Viability (NCI-H1355, log10 conc -8.31158 mol/l): 91.2593% and 85.8715%
- HillSlope (viability) (OV-90): -0.9956
- % Viability (OV-90, log10 conc -7.10735 mol/l): 57.2489% and 75.2258%
- % Viability (OV-90, log10 conc -8.31158 mol/l): 97.3183% and 109.838%
- HillSlope (viability) (SK-MEL-5): -1.006
- % Viability (SK-MEL-5, log10 conc -7.10735 mol/l): 3.91% and 3.091%
- % Viability (SK-MEL-5, log10 conc -8.31158 mol/l): 29.6092% and 31.0459%
- HillSlope (viability) (TOV-112D): -1.255
- % Viability (TOV-112D, log10 conc -7.10735 mol/l): 105.246% and 100.431%
- % Viability (TOV-112D, log10 conc -8.31158 mol/l): 103.581% and 98.4682%
